# Reference: patent US7022317B2, “Heterocyclic derivatives of 2-oxothiazolidine-4-carboxylic acid, and use as active photoprotective agents” (L'Oreal, priority 2003, dated 2006)
# Tested on: keratinocytes
# Assay: Active photoprotection against UVA oxidative stress induced on keratinocytes (DCFH-DA fluorescent probe)
# Type: cell-based
# Conditions: for % of fluorescence relative to the control cells exposed to UVA, TEST 1 / % of fluorescence relative to the control cells exposed to UVA, TEST 2: 24 hours preincubation, DCF fluorescence after UVA; for % of fluorescence relative to the control cells exposed to UVA, Mean: mean of TEST 1 and TEST 2
# Procedure: The photoprotection evaluation technique is performed according to a well-known method (J. of Photochemistry and Photobiology B: Biology 57 (2000) 102–112 TOBI et al: Glutathione modulates the level of free radicals produced in UVA irradiated cells). This technique uses a fluorescent probe, a marker of intracellular global oxidative stress, 2′,7′-dichlorofluoresceine diacetate (DCFH-DA).
# The use of DCFH-DA as an oxidative stress marker is based on its physicochemical properties. It is a nonionic apolar molecular capable of diffusing across cell membranes. Once inside the cell, DCFH-DA is hydrolysed by intracellular esterases to a non-fluorescent compound: DCFH or […]. In the presence of activated oxygen species, DCFH is rapidly oxidized to a highly fluorescent compound: DCF or 2,7-dichlorofluoresceine.
# At confluence, the keratinocytes are incubated in the presence of a compound of formula (I) for 24 hours at 37° C., 5% CO2, in the culture medium, according to a dose effect (3 concentrations).
# The keratinocytes, pretreated with a compound of formula (I), are rinsed and then incubated in the presence of DCFH-DA in the dark.
# After this incubation, the DCFH-DA solution is removed and the cells are then exposed to UVA.
# Comment: a non-exposed control plate is stored in the dark, at room temperature.
# The fluorescence of the DCF is evaluated immediately after the exposure to UVA, via spectrofluorimetry (excitation: 480 nm; emission: 530 nm).
# The results are expressed as % of fluorescence relative to the control cells exposed to UVA: […]
compound,measurement,setting,value
"O=C1NCC(=O)N2C(=O)SCC12 (stereo not shown) [Compound 2, Tetrahydrothiazolo[3,4-a]pyrazine-3,5,8-trione]","% of fluorescence relative to the control cells exposed to UVA, TEST 1",compound at 0.05 mM,98%
same,"% of fluorescence relative to the control cells exposed to UVA, TEST 2",compound at 0.05 mM,86%
same,"% of fluorescence relative to the control cells exposed to UVA, Mean",compound at 0.05 mM,92%
same,"% of fluorescence relative to the control cells exposed to UVA, TEST 1",compound at 0.5 mM,79%
same,"% of fluorescence relative to the control cells exposed to UVA, TEST 2",compound at 0.5 mM,74%
same,"% of fluorescence relative to the control cells exposed to UVA, Mean",compound at 0.5 mM,76.5%
same,"% of fluorescence relative to the control cells exposed to UVA, TEST 1",compound at 5 mM,69%
same,"% of fluorescence relative to the control cells exposed to UVA, TEST 2",compound at 5 mM,58%
same,reduction of fluorescence (optimum efficacy),"compound at 5 mM, UVA oxidative stress",about 36%
same,"% of fluorescence relative to the control cells exposed to UVA, Mean",compound at 5 mM,63.5%
